# Laboratory results taken from paper PMC3429353 (Bioorganic & medicinal chemistry, 2012).
# Assays:
# [1] = system: M. tuberculosis, M. smegmatis, C. albicans, E. coli, and A. baumanii; experiment: Antimicrobial activity against a panel of microorganisms; format: cell-based
# [2] = system: HT-29, MCF-7, NCI-H460, SF268, and IMR90 cells; experiment: Cytotoxicity against the panel of cell lines; format: cell-based, Human
# Vero cells = experiment: Vero cell cytotoxicity
# IMR90 cells = experiment: Cytotoxicity against IMR90 cells; format: cell-based, Human
# [3] = system: Mycobacterium tuberculosis
# Candida albicans = experiment: Antimicrobial activity; format: cell-based
# Staphylococcus aureus = experiment: Antimicrobial activity; format: cell-based
# Acinetobacter baumannii = experiment: Antimicrobial activity; format: cell-based
# Mycobacterium smegmatis = experiment: Antimicrobial activity; format: cell-based
# Escherichia coli = experiment: Antimicrobial activity; format: cell-based
molecule,measurement,setting,value
"C=C[C@]1(C)CC2C(=O)c3c(NC=O)cccc3C(C)(C)[C@H]2C[C@H]1O (relative stereo) [13-hydroxy dechlorofontonamide (3), 13-hydroxy dechlorofontonamide]",antimicrobial activity (in words),[1],no antimicrobial activity
same,cytotoxicity (in words),"[2]; all cell lines tested (HT-29, MCF-7, NCI-H460, SF268, IMR90)",inactive
"[C-]#[N+]C1=C2c3c[nH]c4cccc(c34)C(C)(C)[C@H]2CC[C@]1(C)C=C [Deschloro hapalindole I (2), deschloro hapalindole I]",antimicrobial activity (in words),[1],no antimicrobial activity
[C-]#[N+][C@@H]1[C@H]2c3c[nH]c4cccc(c34)C(C)(C)[C@@H]2CC[C@]1(C)C=C [Hapalindole H],IC50,"[2]; Homo sapiens, read-out: IC50 values (range over cell lines)",8.5 to 31.9 µM
[C-]#[N+]C1=C2c3c[nH]c4cccc(c34)C(C)(C)[C@H]2C[C@@H](Cl)[C@]1(C)C=C [Hapalindole I],cytotoxicity against Vero cells (in words),Vero cells,no detectable cytotoxicity
"[C-]#[N+][C@H]1C(=C)[C@@H](C=C)C[C@@H]2[C@@H]1c1c[nH]c3cccc(c13)C2(C)C [Hapalindole X (1), hapalindole X]",cytotoxicity (in words),"[2]; all four cancer cells (HT-29, MCF-7, NCI-H460, SF268)",moderate cytotoxicity
same,cytotoxicity (in words),IMR90 cells,relatively low cytotoxicity
[C-]#[N+][C@@H]1[C@H]2C(=O)c3c(NC=O)cccc3C(C)(C)[C@@H]2CC[C@]1(C)C=C [Hapalonamide H],MIC M. tuberculosis,[3],1.2 µM
same,MIC C. albicans,Candida albicans,< 0.6 µM
same,MIC S. aureus,Staphylococcus aureus,> 100 µM
same,MIC A. baumanii,Acinetobacter baumannii,> 100 µM
same,MIC M. smegmatis,Mycobacterium smegmatis,34.3 µM
same,IC50,"Vero cells; read-out: IC50 Vero, Vero cell toxicity",13.6 µM
same,MIC E. coli,Escherichia coli,> 100 µM
Gentamycin [reference compound],MIC E. coli,Escherichia coli,2.3 µM
